These results are taken from patent US10317417B2, “Buccal cell diagnosis of arrhythmogenic cardiomyopathy (ACM)” (Beth Israel Deaconess Medical Center, Inc., priority 2015, dated 2019).

In the test the test system is cultured buccal mucosa cells from ACM patients and gene carriers. Nature of the test: Immunostaining of cultured buccal mucosa cells after incubation with SB216763. Set-up: dose or concentration left out as unconfirmed. Particulars: cultured buccal mucosa cells from ACM patients and unaffected gene carriers, confocal microscopy. The test is classed as cell-based, human. The protocol: The oral cavity was first rinsed thoroughly with antiseptic mouthwash. Buccal mucosa cells were collected with a sterile toothbrush which was lightly scraped on the inside of both cheeks for ˜2 minutes. The oral cavity was washed with 15 ml of sterile saline which was collected in a centrifuge tube. The toothbrush itself was washed in an additional 10 ml of saline. The same process was repeated one or more times. The resultant cell suspension was centrifuged at 3000 g for 5 minutes. The pellet was washed once in sterile PBS, re-centrifuged and subsequently re-suspended in 20 ml of PBS supplemented with 5% penicillin/streptomycin and 7 mM fungizone for 30 minutes. The cells were then washed twice in PBS, reconstituted in KGM™-CD chemically defined keratinocyte growth medium (LONZA) and seeded on matrigel-coated chamber slides, where they were maintained at 37° C., 5% CO2 for up to 7 days. Selected cultures were incubated with SB216763 ([…]) for 24 hours prior to immunostaining. Buccal mucosa cultures were washed in PBS, fixed in 4% paraformaldehyde and, after being washed 3 additional times in PBS, were immunostained as described above with mouse monoclonal anti-plakoglobin (Sigma) or mouse monoclonal anti-Cx43 (Millipore) primary antibodies. All immunostained preparations were imaged at 40× using a ZEISS inverted confocal microscope.

Structures are written as SMILES.

In the case of `Cn1cc(C2=C(c3ccc(Cl)cc3Cl)C(=O)NC2=O)c2ccccc21` [SB216763], the Cx43 signal distribution entry is “normalized” and the plakoglobin signal distribution result was “normalized”.
